Values joined by “and” are separate entries in the source; they are usually repeats but may differ in a detail not shown here. Equal entries are not always repeated.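 1) Cells in 96-well plates. 2) Compound, 48 h, 5 concentrations. 3) Linear interpolation between surrounding doses. 4) Unreached endpoint = highest concentration. Here, GI50 denotes the concentration required for 50% inhibition of growth. TGI: total growth inhibition.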 Where a SMILES comes first, the peptide text is derived from it.
Legend:
Experiment in all cases: NCI-60 cell line screen, 48 h
A549 NSCLC = tested on: A549 NSCLC
KM20L2 colon = tested on: KM20L2 colon
LXFL 529 NSCLC = tested on: LXFL 529 NSCLC
SK-MEL-5 melanoma = tested on: SK-MEL-5 melanoma
SNB-78 CNS = tested on: SNB-78 CNS
HOP-18 NSCLC = tested on: HOP-18 NSCLC
HS 578T breast = tested on: HS 578T breast
MCF7 breast = tested on: MCF7 breast
MDA-MB-231 breast = tested on: MDA-MB-231 breast
T-47D breast = tested on: T-47D breast

Cc1c(C(=O)CC(=O)C(=O)Nc2ccc(Cl)c(Cl)c2)[n+](=O)c2ccccc2n1[O-]
TGI (A549 NSCLC): 69.3 µM | TGI (KM20L2 colon): > 100 µM | TGI (LXFL 529 NSCLC): 32.4 µM | TGI (SK-MEL-5 melanoma): 43.9 µM | TGI (SNB-78 CNS): > 100 µM

ClC1CCC2OOC1O2 (centres undefined)
TGI (A549 NSCLC): > 100 µM | TGI (KM20L2 colon): > 100 µM | TGI (SK-MEL-5 melanoma): > 100 µM | TGI (SNB-78 CNS): > 100 µM

O=c1c2ccccc2nc(-c2ccc(Br)cc2)n1NC1OC(CO)C(O)C(O)C1O (centres undefined)
TGI (A549 NSCLC): > 100 µM | TGI (HOP-18 NSCLC): > 100 µM | TGI (KM20L2 colon): > 100 µM | TGI (LXFL 529 NSCLC): > 100 µM | TGI (SK-MEL-5 melanoma): > 100 µM | TGI (SNB-78 CNS): > 100 µM

CCC1=C(C)/C(=C/c2[nH]c(CBr)c(CC)c2C)N=C1CBr
TGI (A549 NSCLC): 36.7 µM | TGI (HOP-18 NSCLC): 24.7 µM | TGI (KM20L2 colon): 32.1 µM | TGI (LXFL 529 NSCLC): 17.9 µM | TGI (SK-MEL-5 melanoma): 30.5 µM

COc1cc2ccc3c4c(OC)cc(OC)c(OC)c4c(=O)n(C)c3c2cc1OC
GI50 (A549 NSCLC): 1.18 µM | TGI (A549 NSCLC): 16.7 µM and > 35.8 µM | TGI (HOP-18 NSCLC): > 100 µM | GI50 (KM20L2 colon): 0.446 µM | GI50 (LXFL 529 NSCLC): 0.766 µM | TGI (LXFL 529 NSCLC): 2.86 µM and > 26.8 µM | GI50 (SK-MEL-5 melanoma): 4.11 µM | TGI (SK-MEL-5 melanoma): 16.7 µM and 35.1 µM | TGI (SNB-78 CNS): 32.5 µM

COC(=O)/C(C#N)=C1\CCC(O)N1C (centres undefined)
TGI (A549 NSCLC): > 100 µM | TGI (HOP-18 NSCLC): > 100 µM | TGI (KM20L2 colon): > 100 µM | TGI (LXFL 529 NSCLC): > 100 µM | TGI (SNB-78 CNS): > 100 µM

COC(=O)C(C(=O)C(=O)NC1=C(Cl)C(=O)c2ccccc2C1=O)c1csc(-n2nc(-c3ccccc3)cc2-c2ccccc2)n1 (centres undefined)
TGI (A549 NSCLC): > 100 µM | TGI (HOP-18 NSCLC): > 100 µM | TGI (KM20L2 colon): > 100 µM | TGI (LXFL 529 NSCLC): > 100 µM | TGI (SNB-78 CNS): > 100 µM

COc1ccc(C(c2ccc(C(C)C)cc(=O)c2O)c2ccc3cccnc3c2O)cc1 (centres undefined)
TGI (A549 NSCLC): 12.3 µM | TGI (LXFL 529 NSCLC): 15.7 µM | TGI (SK-MEL-5 melanoma): 2.41 µM | TGI (SNB-78 CNS): 23.2 µM

CCc1ccccc1NC(=O)CCc1n[nH]c(=S)o1
TGI (A549 NSCLC): > 100 µM | TGI (HOP-18 NSCLC): > 100 µM | TGI (KM20L2 colon): > 100 µM | TGI (LXFL 529 NSCLC): > 100 µM | TGI (SK-MEL-5 melanoma): > 100 µM | TGI (SNB-78 CNS): > 100 µM

CC(=O)OCc1cc(OC(C)=O)cnc1COC(C)=O
TGI (A549 NSCLC): > 100 µM | TGI (HOP-18 NSCLC): > 100 µM | TGI (KM20L2 colon): > 100 µM | TGI (LXFL 529 NSCLC): > 100 µM | TGI (SK-MEL-5 melanoma): > 100 µM

COC(=O)C1=CN=C(C(=O)OC)NN1
TGI (A549 NSCLC): > 100 µM | TGI (HOP-18 NSCLC): > 100 µM | TGI (KM20L2 colon): > 100 µM | TGI (LXFL 529 NSCLC): > 100 µM | TGI (SK-MEL-5 melanoma): > 100 µM

CC(=O)NC(CCCCNC(=O)N(CCCl)N=O)C(=O)NCc1ccccc1 (centres undefined)
TGI (A549 NSCLC): > 100 µM | TGI (HOP-18 NSCLC): > 100 µM | TGI (KM20L2 colon): > 100 µM | TGI (LXFL 529 NSCLC): > 100 µM

Cc1oc2c(C)c(O)c3c(c2c1C1(C)OCCO1)C(=O)C=C(Cl)C3=O
TGI (A549 NSCLC): > 100 µM | TGI (KM20L2 colon): > 100 µM | TGI (LXFL 529 NSCLC): > 100 µM | TGI (SK-MEL-5 melanoma): > 100 µM | TGI (SNB-78 CNS): > 100 µM

N.N.N.N.N.N.[I-].[Os]
GI50 (A549 NSCLC): > 100 µM | TGI (A549 NSCLC): > 100 µM | GI50 (HOP-18 NSCLC): > 100 µM | TGI (HOP-18 NSCLC): > 100 µM | GI50 (KM20L2 colon): > 100 µM | TGI (KM20L2 colon): > 100 µM | GI50 (LXFL 529 NSCLC): > 100 µM | TGI (LXFL 529 NSCLC): > 100 µM | GI50 (SK-MEL-5 melanoma): > 100 µM | TGI (SK-MEL-5 melanoma): > 100 µM | GI50 (SNB-78 CNS): > 100 µM | TGI (SNB-78 CNS): > 100 µM

CN(C)C(=O)/N=c1\ss/c(=N\C(=S)N(C)C)n1-c1ccccc1
GI50 (A549 NSCLC): 0.0483 µM | TGI (A549 NSCLC): > 100 µM | GI50 (HOP-18 NSCLC): > 100 µM | TGI (HOP-18 NSCLC): > 100 µM | TGI (KM20L2 colon): > 100 µM | TGI (LXFL 529 NSCLC): > 88.4 µM | TGI (SK-MEL-5 melanoma): > 100 µM | TGI (SNB-78 CNS): > 100 µM

C[C@@H](CO)OCOCc1ccccc1
TGI (A549 NSCLC): > 100 µM | TGI (LXFL 529 NSCLC): > 100 µM | TGI (SK-MEL-5 melanoma): > 100 µM | TGI (SNB-78 CNS): > 100 µM

C/C=C/C=N/N(C(=O)c1cc([N+](=O)[O-])cc([N+](=O)[O-])c1)C1=NC(c2ccccc2)C(c2ccccc2)=NN1 (centres undefined)
TGI (A549 NSCLC): > 100 µM | TGI (HOP-18 NSCLC): > 100 µM | TGI (KM20L2 colon): 93.9 µM | TGI (SK-MEL-5 melanoma): 81.8 µM | TGI (SNB-78 CNS): > 100 µM

COc1cc(/C=C2\[C@H]3c4c(c(OC)c(C)c(OC)c4OC)C[C@@H](C(=O)N2Cc2ccccc2)N3C(=O)OC(C)C)c(OC)c(C)c1OC
TGI (A549 NSCLC): > 100 µM | TGI (HOP-18 NSCLC): > 100 µM | TGI (KM20L2 colon): > 100 µM | TGI (LXFL 529 NSCLC): > 100 µM | TGI (SK-MEL-5 melanoma): > 100 µM

COc1cc2nc(Sc3c([N+](=O)[O-])ncn3C)[nH]c2cc1OC
TGI (A549 NSCLC): > 100 µM | TGI (HOP-18 NSCLC): > 100 µM | TGI (KM20L2 colon): > 100 µM | TGI (LXFL 529 NSCLC): 32 µM | TGI (SK-MEL-5 melanoma): 63.6 µM | TGI (SNB-78 CNS): > 100 µM

COC(=O)C(C(=O)C(=O)Nc1ccccc1C(C)=O)c1nc2ccc(Cl)cc2[nH]c1=O (centres undefined)
TGI (A549 NSCLC): > 100 µM | TGI (HOP-18 NSCLC): > 100 µM | TGI (KM20L2 colon): > 100 µM | TGI (LXFL 529 NSCLC): > 100 µM | TGI (SK-MEL-5 melanoma): > 100 µM | TGI (SNB-78 CNS): > 100 µM

COC(=O)C1(C(=O)OC)CC2c3c(c4ccccc4n3C)CC(C1=O)N2Cc1ccccc1 (centres undefined)
TGI (A549 NSCLC): > 100 µM | TGI (KM20L2 colon): > 100 µM | TGI (LXFL 529 NSCLC): > 100 µM | TGI (SK-MEL-5 melanoma): > 100 µM | TGI (SNB-78 CNS): > 100 µM

O=C(O)C1NCCc2c1[nH]c1ccccc21 (centres undefined)
GI50 (A549 NSCLC): > 100 µM | TGI (A549 NSCLC): > 100 µM | TGI (HOP-18 NSCLC): > 100 µM | TGI (HS 578T breast): > 10 µM | TGI (KM20L2 colon): > 100 µM | TGI (LXFL 529 NSCLC): > 100 µM | TGI (MCF7 breast): > 10 µM | TGI (MDA-MB-231 breast): > 10 µM | GI50 (SK-MEL-5 melanoma): > 100 µM | TGI (SK-MEL-5 melanoma): > 100 µM | TGI (SNB-78 CNS): > 100 µM | TGI (T-47D breast): > 10 µM

Cc1ccccc1NC(=O)C(=O)C(c1cnc2ccc([N+](=O)[O-])cc2n1)[N+](=O)[O-] (centres undefined)
TGI (A549 NSCLC): > 100 µM | TGI (HOP-18 NSCLC): > 100 µM | TGI (KM20L2 colon): > 100 µM | TGI (SK-MEL-5 melanoma): > 100 µM | TGI (SNB-78 CNS): > 100 µM

Nc1ncnc(NC2C=C(CO)C(O)C2O)c1[N+](=O)[O-] (centres undefined)
TGI (A549 NSCLC): > 100 µM | TGI (HOP-18 NSCLC): > 100 µM | TGI (KM20L2 colon): > 100 µM | TGI (LXFL 529 NSCLC): > 100 µM | TGI (SK-MEL-5 melanoma): > 100 µM | TGI (SNB-78 CNS): > 100 µM

O=C(O)c1ccc(O)c(N=Nc2cc(S(=O)(=O)O)c3ccccc3c2O)c1
TGI (A549 NSCLC): > 100 µM | TGI (KM20L2 colon): > 100 µM | TGI (SK-MEL-5 melanoma): > 100 µM | TGI (SNB-78 CNS): > 100 µM

CC(C)CC(NC(=O)C(CC(C)C)NC(=O)C(Cc1cnc[nH]1)NC(=O)C(C)NC(=O)C(NC(=O)C(C)NC(=O)C(Cc1c[nH]c2ccccc12)NC(=O)C(CCC(=O)O)NC(=O)C(N)Cc1ccccc1)C(C)C)C(N)=O (centres undefined) (H-FEWAVAHLL-NH2; configuration not given here)
GI50 (A549 NSCLC): > 100 µM | TGI (A549 NSCLC): > 100 µM | TGI (HOP-18 NSCLC): > 100 µM | TGI (HS 578T breast): > 12.5 µM | TGI (KM20L2 colon): > 100 µM | TGI (LXFL 529 NSCLC): > 100 µM | TGI (MCF7 breast): > 12.5 µM | TGI (MDA-MB-231 breast): > 12.5 µM | TGI (SK-MEL-5 melanoma): > 12.5 µM | TGI (SNB-78 CNS): > 100 µM | TGI (T-47D breast): > 12.5 µM

COc1ccc(/C=C2\CN(Cc3cn(CCCNc4ccnc5cc(Cl)ccc45)nn3)C/C(=C\c3ccc(OC)c(OC)c3)C2=O)cc1OC
GI50 (A549 NSCLC): 1.71 µM | TGI (A549 NSCLC): 4.11 µM | GI50 (HS 578T breast): 1.99 µM | TGI (HS 578T breast): 9.97 µM | GI50 (MCF7 breast): 0.503 µM | TGI (MCF7 breast): 2.45 µM | GI50 (MDA-MB-231 breast): 1.7 µM | TGI (MDA-MB-231 breast): 3.48 µM | GI50 (SK-MEL-5 melanoma): 2.71 µM | TGI (SK-MEL-5 melanoma): 10.2 µM | GI50 (T-47D breast): 2.42 µM | TGI (T-47D breast): 9.42 µM

Reference: PubChem BioAssay (NCI)
